Reference: patent US20250243219A1, “MACROCYCLIC COMPOUNDS AND USES THEREOF” (Cypralis Limited, priority 2022, published 2025)

Tests used:
cyclophilin A = cyclophilin A (Homo sapiens (Human), UniProt P62937); test: Functional peptidyl prolyl isomerase (PPIase) spectrophotometric assay, cyclophilin A; type: biochemical; conditions: first value of CypA/D cell
Text: (§1) Cyclophilins are enzymes that catalyse the cis-trans isomerisation of peptide bonds to the amino acid proline. This event is important in many biological processes, including protein folding and signal transduction. […] The method to measure this activity and its inhibition is similar to that described by Jankowski (Analytical Biochemistry, 252, 2, 299-307 (1997)). The assay measures the cis to trans isomerisation of a peptide substrate catalysed by a PPlase enzyme using a UV/Vis spectrophotometer. This assay is a manual single cuvette-based assay. A first order rate equation is fitted to the absorbance data to obtain a rate constant. The catalytic rate is calculated from the enzymatic rate minus the background rate. The Ki (the concentration required to produce half maximum inhibition) for an inhibitor is obtained from the rate constant plotted against the inhibitor concentration. Typically, a 6-point dose response curve is obtained from duplicates and a Ki determined. Data are given in Table 5 as Ki [nM] for cyclophilins A and D, expressed in column 2 of Table 5 as Ki (cypA)/Ki (cypD).

cyclophilin D = cyclophilin D (Homo sapiens (Human), UniProt P30405); test: Functional peptidyl prolyl isomerase (PPIase) spectrophotometric assay, cyclophilin D; type: biochemical; conditions: second value of CypA/D cell; read-out: Ki CypD
Text: as §1

[1] = tested on: permeabilised HepG2 cells; test: Calcium retention capacity (CRC) assay in permeabilised HepG2 cells (MPTP opening); type: cell-based, human; parameters: CRC [10 μM]: unit not given here; conditions: compound at 10 μM; for CRC [10 μM]: digitonin permeabilised HepG2 cells; for CRC [10 μM] (ratio vs CsA): normalised to cyclosporin A, value in brackets
Method: The use of permeabilised cells means that inhibitory compounds that may not normally enter non-permeabilised cells are more likely to be active.
The calcium retention capacity (CRC) is a measure of the capability of mitochondria to retain calcium, primarily in the form of calcium phosphates, in the mitochondrial matrix.
In a CRC assay, the calcium indicator Calcium Green-5N (InVitrogen) is utilized. […] The assay is carried out in HepG2 (human hepatocellular carcinoma) cells which are digitonin permeabilized. Trains of calcium pulses (typically 5 μM additions) are added which results in a sudden increase in fluorescence which is then reduced by mitochondrial buffering. The cells will reach a point at which the calcium addition is no longer buffered, an indication that the MPTP has opened (mitochondrial permeability transition).
The experiment is performed with and without inhibitor. A compound that acts to inhibit the mitochondrial pore opening will result in a greater requirement for calcium to reach the transition point. The results are normalised to a positive control (cyclosporin A) in each experiment. The results are shown in column 3 of Table 5 as CRC [10 μM] (ratio vs CsA). The method of digitonin permeabilised whole cell CRC assay is similar to that used by Chiara et al. (PLoS One, March, 3, 3, e1852 (2008)).

SH-SY5Y cells = test: Thapsigargin treated cell death assay in SH-SY5Y cells; type: cell-based, human; conditions: compound at 10 μM, positive = protection from cell death, negative = compound toxicity
Text: Thapsigargin raises intracellular free calcium (Ca^2+) by potently inhibiting the endoplasmic reticulum Ca-ATPase, which sequesters Ca^2+ from the cytosol. The increased cytosolic Ca^2+ concentration is buffered by mitochondria by exchanging Ca^2+ for K, leading to depolarisation in the inner mitochondrial membrane and permeability transition.
The thapsigargin treated Jurkat cell death assay is a homogeneous 96 well plate based assay for cell death, instigated by the opening of the mitochondrial permeability transition pore (MPTP). The addition of thapsigargin to Jurkat cells results in an influx of calcium, the increase in intracellular calcium will initially be buffered by the mitochondria, but eventually the increasing calcium concentration will result in the opening of the MPTP, resulting in cell death.
CellTox™ Green is a dye which is unable to enter the cell until cell death leads to the loss of membrane integrity. Once this happens the CellTox™ Green enters the cell, binds to the cell's DNA and emits a fluorescent signal. […] Unless otherwise stated, the assay is typically run using a range of three compound concentrations of 1, 3 and 10 μM in triplicate and is read kinetically over a period of 24 hours. Compounds are added 30 minutes before the addition of thapsigargin. Compound only controls and positive control, cyclosporin A (CsA) (3 and 10 μM) are also included in the assay. Results are typically calculated at the 8 hour time point and the kinetic data is also reported.
The assay is carried out as described for the Jurkat cells but using the SH-SY5Y (human neuroblastoma) cell line instead of Jurkat cells. The results are shown in the fourth column of Table 5 (SY5Y [10 μM]% recovery). Positive numbers indicate protection from cell death, negative numbers indicate compound toxicity.

Sequence of cyclophilin A (P62937 whole entry, species assumed): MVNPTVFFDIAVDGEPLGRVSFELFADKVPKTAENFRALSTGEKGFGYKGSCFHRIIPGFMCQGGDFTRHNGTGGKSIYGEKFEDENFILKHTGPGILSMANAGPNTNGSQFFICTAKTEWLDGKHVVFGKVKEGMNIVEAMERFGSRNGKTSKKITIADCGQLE
Sequence of cyclophilin D (P30405 30-207, species assumed): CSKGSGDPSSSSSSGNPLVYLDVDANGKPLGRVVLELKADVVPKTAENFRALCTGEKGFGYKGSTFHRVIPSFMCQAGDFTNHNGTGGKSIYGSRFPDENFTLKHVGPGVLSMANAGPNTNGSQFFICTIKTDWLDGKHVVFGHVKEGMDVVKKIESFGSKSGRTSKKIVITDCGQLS

Ki (cyclophilin A) | Ki (cyclophilin D) | SMILES | CRC [10 μM] [1] | CRC [10 μM] (ratio vs CsA) [1] | CRC [10 μM] (ratio vs CsA) ([1]; listed as 32) | SYSY [10 μM] % recovery (SH-SY5Y cells; listed as 51) | SYSY [10 μM] % recovery (SH-SY5Y cells; listed as 52)
> 10000 nM | > 10 nM | CC(C)[C@@H]1OC(=O)C(C)(C)CCc2ccc3ccc(nc3c2)N(C)NC(=O)[C@@H]2CCCN(N2)C(=O)[C@H](C)NC1=O [Compound (5)] |  |  |  |  | 
5.6 nM | 9.6 nM | CC(C)[C@@H]1OC(=O)C(C)(C)/C=C/c2ccc3ccc(nc3c2)N(C)NC(=O)[C@@H]2CCCN(N2)C(=O)[C@H](CCC(=O)O)NC1=O [Compound (62)] |  |  |  |  | 
320 nM | 150 nM | CC(C)[C@H]1CC(=O)C(C)(C)/C=C/c2ccc3ccc(nc3c2)N(C)NC(=O)[C@@H]2CCCN(N2)C(=O)[C@H](C)NC1=O [Compound (82)] |  |  |  |  | 
5.3 nM | 8.7 nM | CC(=O)N1NC(=O)[C@@H]2CCCN(N2)C(=O)[C@H](C)NC(=O)[C@H](C(C)C)OC(=O)C(C)(C)/C=C/c2ccc3ccc1nc3c2 [Compound (10)] |  |  |  |  | 
260 nM | 370 nM | CC(C)[C@@H]1OC(=O)C2(/C=C/c3ccc4ccc(nc4c3)N(C)NC(=O)[C@@H]3CCCN(N3)C(=O)[C@H](C)NC1=O)COCOC2 [Compound (18)] | 10 | 0.33 |  |  | 
36.7 nM | 8.1 nM | CC(C)[C@@H]1OC(=O)C(C)(C)/C=C/c2ccc3ccc(nc3c2)N(CCCO)NC(=O)[C@@H]2CCCN(N2)C(=O)[C@H](C)NC1=O [Compound (7)] |  |  |  |  | 
550 nM | 1300 nM | CC(C)[C@H]1OC(=O)C(C)(C)/C=C/c2ccc3ccc(nc3c2)N(C)NC(=O)[C@@H]2CCCN(N2)C(=O)[C@H](C)NC1=O [Compound (3)] |  | 0.5 |  |  | 
3.3 nM | 13 nM | CC(C)[C@@H]1OC(=O)C(C)(C)/C=C/c2ccc3ncc(nc3c2)N(C)NC(=O)[C@@H]2CCCN(N2)C(=O)[C@H](C)NC1=O [Compound (4)] | 16.4 |  |  |  | 

The next lines start with the molecule.

SMILES | Ki (cyclophilin A) | Ki (cyclophilin D) | CRC [10 μM] [1] | CRC [10 μM] (ratio vs CsA) [1] | CRC [10 μM] (ratio vs CsA) ([1]; listed as 32) | SYSY [10 μM] % recovery (SH-SY5Y cells; listed as 51) | SYSY [10 μM] % recovery (SH-SY5Y cells; listed as 52)
CC(C)[C@@H]1OC(=O)C(C)(C)/C=C/c2ccc3ccc(nc3c2)N2CCCN2C(=O)[C@@H]2CCCN(N2)C(=O)[C@H](C)NC1=O [Compound (8)] | 13.9 nM | 15 nM |  |  |  |  | 
CC(C)NC(=O)c1ccc(C[C@@H]2OC(=O)C(C)(C)/C=C/c3ccc4ccc(nc4c3)N(C)NC(=O)[C@@H]3CCCN(N3)C(=O)[C@H](C)NC2=O)cc1 [Compound (47)] | 27 nM | 21 nM | 17.5 | 1.00 |  |  | 
C[C@@H]1NC(=O)[C@H](CN2CCCCC2)OC(=O)C(C)(C)/C=C/c2ccc3ccc(nc3c2)N(C)NC(=O)[C@@H]2CCCN(N2)C1=O [Compound (44)] | 590 nM | 140 nM | 5 | 0.33 |  |  | 
C[C@@H]1NC(=O)[C@@H](CC2CCCNC2)OC(=O)C(C)(C)/C=C/c2ccc3ccc(nc3c2)N(C)N(C)C(=O)[C@@H]2CCCN(N2)C1=O (single isomer, unassigned) [Compound (32)] | 2200 nM | 4900 nM | 5 |  | 0.20 |  | 
C[C@@H]1NC(=O)[C@H](C2CCCC2)CC(=O)C(C)(C)/C=C/c2ccc3ccc(nc3c2)N(C)NC(=O)[C@@H]2CCCN(N2)C1=O [Compound (24)] | 19 nM | 12 nM |  |  |  |  | 
C[C@@H]1NC(=O)C(Cc2cccc(N)n2)OC(=O)C(C)(C)/C=C/c2ccc3ccc(nc3c2)N(C)NC(=O)[C@@H]2CCCN(N2)C1=O (single isomer, unassigned) [Compound (51)] |  |  |  |  |  | 37% | 
CC(C)C(=O)N1CCC2(/C=C/c3ccc4ccc(nc4c3)N(C)NC(=O)[C@@H]3CCCN(N3)C(=O)[C@H](C)NC(=O)[C@H](C(C)C)OC2=O)CC1 [Compound (15)] | 1.7 nM | 9.9 nM | 38 | 1 |  |  | 
C[C@@H]1NC(=O)[C@H](CC2CCNCC2)OC(=O)C(C)(C)/C=C/c2ccc3ccc(nc3c2)N(C)NC(=O)[C@@H]2CCCN(N2)C1=O [Compound (58)] | 80 nM | 54.5 nM | 8.3 | 0.38 |  |  | 
CC(C)[C@@H]1NCC(C)(C)/C=C/c2ccc3ccc(nc3c2)N(C)NC(=O)[C@@H]2CCCN(N2)C(=O)[C@H](C)NC1=O [Compound (20)] | 100 nM | 140 nM | 22.5 | 0.57 |  |  | 
CC(C)[C@H]1C(=O)N[C@@H](C)C(=O)N2CCC[C@H](N2)C(=O)NN(C)c2ccc3ccc(cc3n2)/C=C/C(C)(C)CN1C [Compound (23)] | 92 nM | 260 nM | 12.5 | 0.38 |  |  | 
CC(C)C(=O)N1CCN(C[C@@H]2OC(=O)C(C)(C)/C=C/c3ccc4ccc(nc4c3)N(C)NC(=O)[C@@H]3CCCN(N3)C(=O)[C@H](C)NC2=O)C[C@@H]1C [Compound (45)] | 61 nM | 140 nM | 15 | 0.60 |  |  | 
C[C@@H]1NC(=O)C(Cc2cccc(N)n2)OC(=O)C(C)(C)/C=C/c2ccc3ccc(nc3c2)N(C)NC(=O)[C@@H]2CCCN(N2)C1=O (single isomer, unassigned) [Compound (52)] |  |  |  |  |  |  | 35%
C[C@@H]1NC(=O)[C@H](Cc2ccc(C(=O)O)cc2)OC(=O)C(C)(C)/C=C/c2ccc3ccc(nc3c2)N(C)N(C)C(=O)[C@@H]2CCCN(N2)C1=O [Compound (11)] | 280 nM | 83 nM | 20 | 0.80 |  |  | 
CC(C)[C@@H]1OC(=O)C(C)(C)/C=C/c2ccc3ccc(nc3c2)N(C)NC(=O)[C@@H]2CCCN(N2)C(=O)[C@@H](Cc2ccccc2)NC1=O [Compound (77)] |  | 700 nM | 15 | 0.39 |  |  | 
CC(=O)N1CCC[C@@H](C[C@@H]2OC(=O)C(C)(C)/C=C/c3ccc4ccc(nc4c3)N(C)NC(=O)[C@@H]3CCCN(N3)C(=O)[C@H](C)NC2=O)C1 [Compound (29)] | 51 nM | 170 nM | 20 | 0.67 |  |  | 
CC(C)[C@@H]1OC(=O)C(C)(C)/C=C/c2ccc3ccc(nc3c2)N(C)NC(=O)[C@@H]2CCCN(N2)C(=O)[C@H](Cc2ccncc2)NC1=O [Compound (78)] |  | 360 nM | >10,000 |  |  |  | 
C[C@@H]1NC(=O)[C@H](Cc2ccc(O)cc2)OC(=O)C(C)(C)/C=C/c2ccc3ccc(nc3c2)N(C)NC(=O)[C@@H]2CCCN(N2)C1=O [Compound (42)] | 1.2 nM | 5.8 nM | 25 | 0.8 |  |  | 
C[C@@H]1NC(=O)[C@H](C2CCOCC2)OC(=O)C(C)(C)/C=C/c2ccc3ccc(nc3c2)N(C)NC(=O)[C@@H]2CCCN(N2)C1=O [Compound (59)] | 37 nM | 38 nM | 17.5 | 0.85 |  |  | 
C[C@@H]1NC(=O)[C@@H](CC2CCCN(C)C2)OC(=O)C(C)(C)/C=C/c2ccc3ccc(nc3c2)N(C)NC(=O)[C@@H]2CCCN(N2)C1=O (stereo partly shown) [Compound (28)] | 5900 nM |  | 5 | 0.17 |  |  | 
